Structures can show the parent of a compound that is named as a salt. Where two headings read alike, the source gives them in different places.
Columns and labels:
dopamine D2 receptor = target: T1, dopamine D2 receptor (Homo sapiens, UniProt P14416); assay: Dopamine D2 receptor-binding assay ([3H]Spiperone displacement); conditions: inhibition of binding of 0.4 nM [3H]Spiperone, CHO-hD2L film product, room temperature 120 minutes; read-out: IC50 (affinity to D2 receptor)
T1 construct: expressed in transfected cells; host or cells: CHO-hD2L cells (membrane preparation)
T1 sequence (P14416 whole entry): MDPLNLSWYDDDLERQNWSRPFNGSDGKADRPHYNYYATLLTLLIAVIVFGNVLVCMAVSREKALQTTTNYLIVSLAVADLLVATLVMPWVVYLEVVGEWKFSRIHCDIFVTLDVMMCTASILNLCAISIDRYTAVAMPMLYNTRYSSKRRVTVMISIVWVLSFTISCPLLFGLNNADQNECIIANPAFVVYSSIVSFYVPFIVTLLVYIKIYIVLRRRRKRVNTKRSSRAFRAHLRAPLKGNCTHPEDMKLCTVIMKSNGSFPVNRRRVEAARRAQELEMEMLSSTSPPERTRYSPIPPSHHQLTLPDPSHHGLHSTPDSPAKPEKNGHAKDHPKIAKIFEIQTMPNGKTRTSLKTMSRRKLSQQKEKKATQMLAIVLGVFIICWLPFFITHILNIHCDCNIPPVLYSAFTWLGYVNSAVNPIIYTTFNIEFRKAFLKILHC
Protocol: A Dopamine D2 Receptor-Binding Assay
An isotope ligand for D2 receptor: [^3H]Spiperone (77.0 Ci/mmol); (+)Butaclamol; GF/C glass fiber media; a liposoluble scintillation solution; and the D2 receptor protein expressed by sf9 cells.
A binding assay of a film product of CHO-hD2L cells and [^3H]Spiperone is conducted in a 250 μl of 50 mM of Tris-HCl […] buffer (Ph=7.4) solution comprising 100 mM of NaCl, 1 mM of MgC12 and 1% of DMSO. A sample in duplicate containing compounds to be tested, 0.4 nM of [^3H]Spiperone and 12 ug of protein is maintained at room temperature for 120 minutes. The bound radioactive ligand is separated by flash filtration under reduced pressure using Whatman GF/B glass fiber filter pre-treated with 0.3% polyethylenelmine, and radioactivity maintained on the filter is measured using liquid scintillation spectrophotometry. The title compounds in the following examples are tested using the above test, which comprises first of all testing competitive inhibition rate of each compound at a concentration of 10 umol/L to binding of [^3H]Spiperone to D2 receptor through a rough screening; and compounds having inhibition rate higher than 95% are subjected to receptor binding assay under a series of concentrations to determine a half-inhibitory concentration (IC50, the concentration of a compound needed for inhibiting binding of 50% [^3H]Spiperone to D2 receptor). Two tubes under each concentration are measured, and each compound is subjected to two independent tests.

rD2R = target: T2, rD2R (Rattus norvegicus, UniProt P61169); assay: Antagonistic test of D2 receptor (cAMP radioimmunoassay, Forskolin + Dopamine, CHO-rD2 cells); format: cell-based; conditions: 10 μM Forskolin + 10 μM Dopamine, cAMP generated
T2 construct: expressed in transfected cells; host or cells: CHO cells stably expressing rD2R (CHO-rD2)
T2 sequence (P61169 whole entry): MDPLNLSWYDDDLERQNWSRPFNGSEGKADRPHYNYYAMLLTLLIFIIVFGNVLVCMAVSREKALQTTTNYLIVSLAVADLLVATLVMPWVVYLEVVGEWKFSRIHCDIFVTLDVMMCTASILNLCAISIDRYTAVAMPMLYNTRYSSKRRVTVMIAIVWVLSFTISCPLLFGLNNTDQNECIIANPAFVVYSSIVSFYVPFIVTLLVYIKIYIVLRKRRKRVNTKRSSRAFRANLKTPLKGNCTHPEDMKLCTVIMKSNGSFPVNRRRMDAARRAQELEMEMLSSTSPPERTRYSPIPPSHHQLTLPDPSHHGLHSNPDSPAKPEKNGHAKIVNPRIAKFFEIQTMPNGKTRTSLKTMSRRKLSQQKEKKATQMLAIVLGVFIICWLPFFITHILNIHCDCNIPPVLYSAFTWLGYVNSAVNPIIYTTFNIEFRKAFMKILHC
Protocol: An Antagonistic Test of D2 Receptor
CHO-rD2 cell is seeded on a 96-well plate at a concentration of 30,000 cells/well, and cultured overnight; each medicine is dissolved in a serum-free F12 culture media containing 100 μM of IBMX, and is added to the above cell for preculturing 30 minutes at 37° C.; thereafter a serum-free F12 culture media containing 10 μM of Forskolin and 10 μM of Dopamine is added and react for 8 minutes, and then 100 μl of pre-cooled 1M HClO4 is added to terminate the reaction. The reaction solution is allowed to stand on ice for 40 minutes, and thereto 20 μl of 2M K2CO3 is added to neutralize the reaction solution. The reaction solution is centrifuged at 3,000 rpm for 15 minutes at 4° C., and a KClO4 deposit is discarded. An amount of supernatant is diluted in 0.05M of acetic acid buffer, and the amount of generated cAMP is measured with radioimmunoassay method. […] See the kit's instructions for detailed steps. Two tubes under each concentration of each compound are measured, and each compound is subjected to two independent tests.
The ordinate of the dose-effect curve represents a reduced percentage of the amount of generated cAMP through antagonist of DA by the compound.

[1] = tested on: histidine auxotroph mutant of mouse salmonella TA97, TA98, TA100 and TA102
Description: Bacterial Reverse Mutation Test of II-1
Strains: histidine auxotroph mutant of mouse salmonella TA97, TA98, TA100 and TA102.
Results: the test consists of two parts, i.e., −S9 and +S9. […] No bacteriostatic actions to all the strains are observed at all other doses, and the growth background is good.

[2] = Oral absorption in studies on animal models; format: in vivo
in vivo = conditions: mouse, po
[3] = tested on: schizophrenia behaviors in mice induced by apomorphine; assay: In vivo anti-schizophrenia activity: apomorphine-induced stereotyped behavior in mice; conditions: female KM mice, oral gavage 30 minutes before apomorphine 10 mg/kg i.p.; II-1 20 mg/kg, aripiprazole 5 mg/kg, risperidone 0.25 mg/kg
Protocol: A Test of In Vivo Anti-Schizophrenia Activity of Compound II-1
Apomorphine: apomorphine is dissolved in 0.1% ascorbic acid to form a solution having a dosage of 10 mg/kg.
Aripiprazole is dissolved in physiological saline to form a solution having a dosage of 5 mg/kg, and subjected to ultrasonication for dissolving.
Risperidone is dissolved in physiological saline to form a solution having a dosage of 0.25 mg/kg.
Compound II-1 is formulated to 20 mg/kg, and is formulated in situ for use.
Female KM mice, 18-22 g, are randomly divided into a solvent control group, a model control group, a positive control group, and various treatment groups of the tested medicines. Groups for behavior observation test contain 5 mice each group, and groups for activity observation test contain 4 mice each group.
(1) Administration in mice: each group of mice is administrated with 0.1 ml/10 g of the various tested medicines by oral gavage. […]
The stereotyped behavior numbers of the mice in various groups at six time points are statistically analyzed to calculate an average number of each mouse, and the result is denoted by mean±SD.
The test result of stereotyped behavior is statistically analyzed using a LSD method; and observation result of the numbers of activities of the mice is statistically analyzed with repeated-measures analysis of variance and Q-test.

Structure (SMILES) | IC50 (dopamine D2 receptor) [nM] | other results
O=C1CCc2ccc(OCCCCN3CCC(c4noc5cc(F)ccc45)CC3)cc2N1 [II-1, 7-[4-(4-(6-fluoro-benzisoxazolyl)-1-piperidinyl)-n-butoxy]-3,4-dihydro-2(1H)-quinolinone hydrochloride] | 5.66 | IC50 (rD2R): 3380 nM; Ames test ([1]; TA97, TA98, TA100, TA102, with or without S9, all tested doses): negative; dose showing bacteriostatic action ([1]; TA97, test system containing S9): 5000 μg per dish; dose showing bacteriostatic action ([1]; TA98, test system without S9): 5000 μg per dish; oral absorption [2]: good; LD50 (in vivo): > 2000 mg/kg
COc1ccc2onc(C3CCN(CCCCOc4ccc5c(c4)NC(=O)CC5)CC3)c2c1 [II-6, 7-[4-(4-(5-methoxy-benzisoxazolyl)-1-piperidinyl)-n-butoxy]-3,4-dihydro-2(1H)-quinolinone hydrochloride] | 277 | 
O=C1CCc2ccc(OCCCCN3CCC(c4noc5ccc(F)cc45)CC3)cc2N1 [II-7, 7-[4-(4-(5-fluoro-benzisoxazolyl)-1-piperidinyl)-n-butoxy]-3,4-dihydro-2(1H)-quinolinone hydrochloride] | 12.6 | 
COc1cc2onc(C3CCN(CCCCOc4ccc5c(c4)NC(=O)CC5)CC3)c2cc1OC [II-8, 7-[4-(4-(5,6-dimethoxy-benzisoxazolyl)-1-piperidinyl)-n-butoxy]-3,4-dihydro-2(1H)-quinolinone hydrochloride] | 23.8 | 
O=C1CCc2ccc(OCCCCN3CCC(c4noc5ccc(O)cc45)CC3)cc2N1 [II-9, 7-[4-(5-hydroxy-benzisoxazolyl)-1-piperidinyl)-n-butoxy]-3,4-dihydro-2(1H)-quinolinone hydrochloride] | 78.8 | 
O=C1CCc2ccc(OCCCCN3CCC(c4noc5cc(O)c(O)cc45)CC3)cc2N1 [II-10, 7-[4-(5,6-dihydroxy-benzisoxazolyl)-1-piperidinyl)-n-butoxy]-3,4-dihydro-2(1H)-quinolinone hydrochloride] | 45.6 | 
O=C1CCc2ccc(OCCCCN3CCN(c4nsc5ccccc45)CC3)cc2N1 [III-1, 7-[4-(1,2-benzisothiazol-3-yl)-1-piperazinyl)-n-butoxy]-3,4-dihydro-2(1H)-quinolinone hydrochloride] | 5.23 | IC50 (rD2R): 56400 nM
O=C1CCc2ccc(OCCCN3CCN(c4nsc5ccccc45)CC3)cc2N1 [III-2, 7-[3-(1,2-benzisothiazolyl)-1-piperazinyl]-n-propoxy]-3,4-dihydro-2(1H)-quinolinone hydrochloride] | 76.8 | 
COc1ccc2c(N3CCN(CCCCOc4ccc5c(c4)NC(=O)CC5)CC3)nsc2c1 [III-4, 7-[4-(6-methoxy-1,2-benzisothiazolyl)-1-piperazinyl]-n-butoxy]-3,4-dihydro-2(1H)-quinolinone of hydrochloride] | 17.9 | 
COc1cccc2c(N3CCN(CCCCOc4ccc5c(c4)NC(=O)CC5)CC3)nsc12 [III-5, 7-[4-(7-methoxy-1,2-benzisothiazolyl)-1-piperazinyl]-n-butoxy-3,4-dihydro-2(1H)-quinolinone hydrochloride] | 15.8 | 
COc1ccc2snc(N3CCN(CCCCOc4ccc5c(c4)NC(=O)CC5)CC3)c2c1 [III-6, 7-[4-(5-methoxy-1,2-benzisothiazolyl)-1-piperazinyl]-n-butoxy]-3,4-dihydro-2(1H)-quinolinone hydrochloride] | 15 | 
COc1cccc2snc(N3CCN(CCCCOc4ccc5c(c4)NC(=O)CC5)CC3)c12 [III-7, 7-[4-(4-methoxy-1,2-benzisothiazolyl)-1-piperazinyl]-n-butoxy]-3,4-dihydro-2(1H)-quinolinone hydrochloride] | 168 | 
O=C1Cc2ccc(OCCCCN3CCC(c4noc5cc(F)ccc45)CC3)cc2N1 [IV-1, 6-[4-(4-(3-(6-fluoro-benzisoxazolyl))-1-piperidinyl)-n-butoxy)-indoline-2-one] | 38.9 | IC50 (rD2R): 198000 nM
O=C1CCc2ccc(OCCCCN3CCN(c4cccc(Cl)c4Cl)CC3)cc2N1 [aripiprazole] |  | number of stereotyped activities of mice compared with the model group [3]: reduced significantly; LD50 (in vivo): 1400 mg/kg
Cc1nc2n(c(=O)c1CCN1CCC(c3noc4cc(F)ccc34)CC1)CCCC2 [risperidone] |  | number of stereotyped activities of mice compared with the model group [3]: reduced significantly; LD50 (in vivo): 83.2 mg/kg
O=C1Cc2cc(CCN3CCN(c4nsc5ccccc45)CC3)c(Cl)cc2N1 [ziprasidone] |  | LD50 (in vivo): 1600 mg/kg
